# Earlier results as cited in US12171220B2, “High osmolarity antimicrobial composition containing one or more organic solvents” (Next Science IP Holdings Pty Ltd, priority 2013, dated 2024).
# Details: alcohols, Table 2; room temperature
row,Structure (SMILES),~δp (MPa^1/2)
1,"OCC(Cl)CCl (centres unmarked) [2,3-dichloropropanol]",~9.2 MPa^1/2
2,OC1C=CCC1 (centres unmarked) [2-cyclopentenyl alcohol],~7.6 MPa^1/2
3,CCC(CC)CO [2-ethyl-1-butanol],~4.3 MPa^1/2
4,CCCCC(CC)CO (centres unmarked) [2-ethyl-hexanol],~3.3 MPa^1/2
5,OCc1ccc(Cl)cc1 [4-chlorobenzyl alcohol],~7.5 MPa^1/2
6,"CCCCO [Example 1-butanol, 1-butanol]",~5.7 MPa^1/2
7,"CCCCCCCCCCO [Example 1-decanol, 1-decanol]",~10.0 MPa^1/2
8,"CCCCCO [Example 1-pentanol, 1-pentanol]",~4.5 MPa^1/2
9,"CCCO [Example 1-propanol, 1-propanol]",~6.8 MPa^1/2
10,"CCCCCCCCC(C)O (centres unmarked) [Example 2-decanol, 2-decanol]",~10.0 MPa^1/2
11,"CCCC(C)O (centres unmarked) [Example 2-pentanol, 2-pentanol]",~6.4 MPa^1/2
12,"C=CCO [Example 2-propenol, 2-propenol]",~10.8 MPa^1/2
13,OC1CCCCC1 [cyclohexanol],~4.1 MPa^1/2
14,CO [methanol],~12.3 MPa^1/2
15,CC(C)(C)O [t-butyl alcohol],~5.1 MPa^1/2

# Now from value to molecule:
row,~δp (MPa^1/2),Structure (SMILES)
1,~6.1 MPa^1/2,"CC(C)O [Example 2-propanol, 2-propanol]"
2,~8.8 MPa^1/2,CCO [ethanol]
3,~7.3 MPa^1/2,CC(C)CCCCCO [isooctyl alcohol]
4,~3.3 MPa^1/2,CCCCCCCCO [octanol]
5,~2.6 MPa^1/2,CCCCCCCC/C=C\CCCCCCCCO [oleyl alcohol]

# Same assay, conditions: glycol ethers, Table 1; room temperature
row,Structure (SMILES),~δp (MPa^1/2)
1,COCCOCCO [diethylene glycol monomethyl ether],~7.8 MPa^1/2
2,CCOCCO [ethylene glycol monoethyl ether],~9.2 MPa^1/2
3,COCCO [ethylene glycol monomethyl ether],~9.2 MPa^1/2
4,OCCOc1ccccc1 [ethylene glycol monophenyl ether],~5.7 MPa^1/2

# More lines, now with the values ahead:
row,~δp (MPa^1/2),Structure (SMILES)
1,~7.0 MPa^1/2,CCCCOCCOCCO [diethylene glycol mono-n-butyl ether]
2,~9.2 MPa^1/2,CCOCCOCCO [diethylene glycol monoethyl ether]
3,~5.9 MPa^1/2,OCCOCc1ccccc1 [ethylene glycol monobenzyl ether]
4,~5.1 MPa^1/2,CCCCOCCO [ethylene glycol monobutyl ether]
5,~8.2 MPa^1/2,CC(C)OCCO [ethylene glycol monoisopropyl ether]
6,~8.2 MPa^1/2,CCCOCCO [ethylene glycol monopropyl ether]
7,~4.5 MPa^1/2,CCCCOCC(C)O (centres unmarked) [propylene glycol monobutyl ether]
8,~6.5 MPa^1/2,CCOCC(C)O (centres unmarked) [propylene glycol monoethyl ether]
9,~4.7 MPa^1/2,CC(C)COCC(C)O (centres unmarked) [propylene glycol monoisobutyl ether]
10,~6.1 MPa^1/2,CC(O)COC(C)C (centres unmarked) [propylene glycol monoisopropyl ether]
11,~6.3 MPa^1/2,COCC(C)O (centres unmarked) [propylene glycol monomethyl ether]
12,~5.6 MPa^1/2,CCCOCC(C)O (centres unmarked) [propylene glycol monopropyl ether]
13,~7.6 MPa^1/2,COCCOCCOCCO [triethylene glycol monomethyl ether]
14,~3.1 MPa^1/2,CCCCCCCC/C=C\CCCCCCCCOCCOCCOCCO [triethylene glycol monooleyl ether]

# Same assay, conditions: solvents added in Examples 65-80, text
row,Structure (SMILES),δp
1,Clc1ccccc1 [chlorobenzene],4.3
2,CCOC(C)=O [ethyl acetate],5.3

# Same assay, conditions: water
row,Structure (SMILES),δp
1,O [water],≈ 16.0 MPa^1/2
